What was measured:
Assay type in all cases: cell-based
SARS coronavirus = experiment: microbe, parasite or virus in culture; details: Severe acute respiratory syndrome coronavirus, read-out: In-Vitro Antiviral Screening Result (EC50) F
Influenza A virus H1N1 = experiment: microbe, parasite or virus in culture; details: H1N1, read-out: In-Vitro Antiviral Screening Result (EC50) H
[1] = test system: Venezuelan equine encephalitis virus; experiment: microbe, parasite or virus in culture; details: read-out: In-Vitro Antiviral Screening Result (EC50) G
[2] = test system: Japanese encepahalitis virus; details: read-out: In-Vitro Antiviral Screening Result (EC50) C
many virus = experiment: Antivirus studies in vitro, summary over the virus panel; details: read-out: EC50 against many virus
Experimental: compounds were diluted to 20 mg/mL in DMSO then prepared in for log 10 dilutions of 100 μg/mL down to 0.1 μg/mL) in MEM solution with 50 μg/mL gentamicin and 2% FBS. Each dilution was added to 5 wells of a 96-well plate with 80-100% confluent cells. Three wells of each dilution were infected with virus, and two wells remained uninfected as toxicity controls. The multiplicity of infection (MOI) was as low as possible to achieve CPE within 3-5 days of incubation. A known active compound was tested in parallel as a control. After untreated virus control wells reached maximum cytopathic effect (CPE), each well was scored microscopically. Plates were then stained with neutral red dye for approximately 2 hours, then supernatant dye was removed from the wells and the incorporated dye was extracted in 50:50 Sorensen citrate buffer/ethanol, then the optical density was read on a spectrophotometer.

Rift Valley fever virus = experiment: microbe, parasite or virus in culture; details: read-out: In-Vitro Antiviral Screening Result (EC50) E

Row | SMILES | EC50 (SARS coronavirus) [µg/mL] | EC50 (Influenza A virus H1N1) [µg/mL] | EC50 [1] [µg/mL] | EC50 [2] [µg/mL] | EC50 (many virus) [µg/mL] | EC50 (Rift Valley fever virus) [µg/mL]
1 | C=C1CCC2C3(C)COC(c4ccc(OC5OC(CO)C(O)C(O)C5O)cc4)OC3CCC2(C)C1C/C=C1/C(=O)OCC1O (stereo not drawn) [Example 45, (E)-3-(2-(6a,10b-dimethyl-8-methylene-3-(4-((3,4,5-trihydroxy-6-(hydroxymethyl)tetrahydro-2H-pyran-2-yl)oxy)phenyl)decahydro-1H-naphtho[2,1-d][1,3]dioxin-7-yl)ethylidene)-4-hydroxydihydrofuran-2(3H)-one] | < 50 | > 100 | < 50 | < 50 | < 50 | < 50
2 | C=C1CCC2[C@](C)(CC[C@@H](O)[C@@]2(C)CO)C1/C=C/C1=CC(=C\c2cn(C)c3nc(N)ncc23)/OC1=O (stereo partly drawn) [Example 46, 11,12-dedihydro-14-deoxy-(E)-15-((2-amino-7-methyl-7H-pyrrolo[2,3-d]pyrimidin-5-yl)methylene)andrographolide] | < 50 | < 100 | < 100 | < 100 | < 50 | < 50
3 | C=C1CCC2[C@](C)(CC[C@@H](O)[C@@]2(C)CO)C1/C=C/C1=CC(=C\c2cnc(N)[nH]c2=O)/OC1=O (stereo partly drawn) [Example 50, 11,12-dedihydro-14-deoxy-15-(2-amino-4-oxo-3H-pyrimidine-5-ylmethylene)andrographolide] | < 100 | < 50 | < 50 | < 50 | < 50 | < 100
4 | Cn1cc(/C=C2C=C(/C=C/C3C4(CCC5[C@]3(C)CC[C@@H](O)[C@@]5(C)CO)CO4)C(=O)O\2)c2cnc(N)nc21 (stereo partly drawn) [Example 59, 11,12-dedihydro-14-deoxy-(E)-15-((2-amino-7-methyl-7H-pyrrolo[2,3-d]pyrimidin-5-yl)methylene)-8,17-epoxyandrographolide] | < 50 | < 100 | > 100 | > 100 | < 50 | < 50
5 | C=C1CCC2[C@](C)(CC[C@@H](O)[C@@]2(C)CO)C1/C=C/C1=CC(=C\C2=CN3CC(=O)N(C)C3C=C2)/OC1=O (stereo partly drawn) [Example 63, 11,12-dedihydro-14-deoxy-(E)-15-((1-methyl-2-oxo-1,2,3,8a-tetrahydroimidazo[1,2-a]pyridin-6-yl)methylene)andrographolide] | < 50 | < 50 | < 100 | < 100 | < 50 | < 50
6 | C=C1CCC2[C@](C)(CC[C@@H](O)[C@@]2(C)CO)C1/C=C/C1=CC(=C\c2cnc(N3CCCC3CO)nc2)/OC1=O (stereo partly drawn) [Example 65, 11,12-dedihydro-14-deoxy-(E)-15-((2-(2-(hydroxymethyl)pyrrolidin-1-yl)pyrimidin-5-yl)methylene)andrographolide] | < 50 | > 100 | < 100 | > 100 | < 50 | < 50
7 | CCN(CC)c1ccc(/C=C2C=C(/C=C/C3C4(CCC5[C@]3(C)CC[C@@H](O)[C@@]5(C)CO)CO4)C(=O)O\2)c(O)c1 (stereo partly drawn) [Example 66] | < 100 | < 100 | < 50 | < 50 | < 50 | < 100
8 | CN1C(=O)CN2C=C(/C=C3C=C(/C=C/C4C5(CCC6[C@]4(C)CC[C@@H](O)[C@@]6(C)CO)CO5)C(=O)O\3)C=CC21 (stereo partly drawn) [Example 68, 11,12-dedihydro-14-deoxy-(E)-15-((1-methyl-2-oxo-1,2,3,8a-tetrahydroimidazo[1,2-a]pyridin-6-yl)methylene)-8,17-epoxyandrographolide] | < 50 | > 100 | < 50 | < 50 | < 50 | > 100
9 | C[C@]12CC[C@@H](O)[C@@](C)(CO)C1CCC1(CO1)C2/C=C/C1=CC(=C\c2cnc(N3CCCC3CO)nc2)/OC1=O (stereo partly drawn) [Example 69, 11,12-dedihydro-14-deoxy-(E)-15-((2-(2-(hydroxymethyl)pyrrolidin-1-yl)pyrimidin-5-yl)methylene)-8,17-epoxyandrographolide] | < 50 | < 100 | > 100 | > 100 | < 50 | < 50
10 | CN1CCN(c2ccc(/C=C3C=C(/C=C/C4C5(CCC6[C@]4(C)CC[C@@H](O)[C@@]6(C)CO)CO5)C(=O)O\3)cc2)CC1 (stereo partly drawn) [Example 71, 11,12-dedihydro-14-deoxy-(E)-15-(4-(4-methylpiperazin-1-yl)benzylidene)-8,17-epoxyandrographolide] | < 100 | < 100 | < 50 | < 50 | < 50 | > 100
11 | CN(C)c1ccc(/C=C2C=C(/C=C/C3C4(CO4)C(N4CCOCC4)CC4[C@]3(C)CC[C@@H](O)[C@@]4(C)CO)C(=O)O\2)cc1 (stereo partly drawn) [Example 76, 7-(4-morpholino)-11,12-dedihydro-14-deoxy-15-(4-(dimethylamino)benzylidene)andrographolide] | < 50 | < 100 | > 100 | > 100 | < 50 | < 100
12 | C[C@]12CC[C@@H](O)[C@@](C)(CO)C1CCC1(CO1)C2/C=C/C1=CC(=C\c2ccc(-n3ccnc3)cc2)/OC1=O (stereo partly drawn) [Example 77, 11,12-dedihydro-14-deoxy-(E)-15-(4-(1H-imidazol-1-yl)benzylidene)-8,17-epoxyandrographolide] | < 100 | < 100 | > 100 | < 100 | < 50 | < 50
13 | CN(C)c1ccc(/C=C2C=C(/C=C/C3C4(CCC5[C@]3(C)CC[C@@H](O)[C@@]5(C)CO)CO4)C(=O)O\2)c(O)c1 (stereo partly drawn) [Example 78] | < 50 | > 100 | < 100 | < 100 | < 50 | < 100
14 | C=C1CCC2[C@](C)(CC[C@@H](O)[C@@]2(C)CO)C1/C=C/C1=CC(=C\c2ccc(-n3ccnc3)cc2)/OC1=O (stereo partly drawn) [Example 79, 11,12-dedihydro-14-deoxy-(E)-15-(4-(1H-imidazol-1-yl)benzylidene)andrographolide] | < 50 | < 50 | < 50 | < 50 | < 50 | < 50
15 | CC(=O)OCC1(C)C(OC(C)=O)CCC2(C)C(/C=C/C3=CCOC3=O)C3C(=Nc4cncn43)CC12 (stereo not drawn) [Example 95] | < 50 | < 50 | < 100 | > 100 | < 50 | > 100
16 | C=C1C(N2CCOCC2)CC2[C@](C)(CC[C@@H](O)[C@@]2(C)CO)C1/C=C/C1=CC(=C\c2ccc(N(C)C)cc2)/OC1=O (stereo partly drawn) [Example 124] | < 50 | < 100 | < 50 | < 50 | < 50 | < 50
17 | C=C1C(NC(C)C(=O)NC2=NCC=N2)CC2[C@](C)(CC[C@@H](O)[C@@]2(C)CO)C1/C=C/C1=CC(=C\c2ccc(N(C)C)cc2)/OC1=O (stereo partly drawn) [Example 188] | < 50 | > 100 | < 100 | < 100 | < 50 | < 100
